Experimental data from the NIST ThermoML archive (doi:10.1016/j.fluid.2015.03.016).
Where “and” joins values, the source holds several entries; their conditions need not be identical. Equal values may be shown once.

Conditions: Liquid

CCCOC(=O)CCCCC(=O)OCCC [dipropyl hexanedioate]
Conditions | viscosity
303.14 K, 1110 kPa, Vibrating wire viscometry | 3.606 mPa·s and 3.607 mPa·s
303.14 K, 1140 kPa, Vibrating wire viscometry | 3.609 mPa·s
303.14 K, 5210 kPa, Vibrating wire viscometry | 3.78 mPa·s
303.14 K, 5220 kPa, Vibrating wire viscometry | 3.781 mPa·s and 3.776 mPa·s
303.14 K, 18280 kPa, Vibrating wire viscometry | 4.327 mPa·s
303.14 K, 18290 kPa, Vibrating wire viscometry | 4.33 mPa·s and 4.331 mPa·s
303.15 K, 2810 kPa, Vibrating wire viscometry | 3.653 mPa·s and 3.654 mPa·s
303.15 K, 2820 kPa, Vibrating wire viscometry | 3.657 mPa·s
303.15 K, 10310 kPa, Vibrating wire viscometry | 3.975 mPa·s
303.15 K, 10320 kPa, Vibrating wire viscometry | 3.972 mPa·s
303.15 K, 15230 kPa, Vibrating wire viscometry | 4.218 mPa·s
303.15 K, 15260 kPa, Vibrating wire viscometry | 4.213 mPa·s
303.15 K, 15310 kPa, Vibrating wire viscometry | 4.218 mPa·s
313.15 K, 2710 kPa, Vibrating wire viscometry | 2.934 mPa·s and 2.931 mPa·s
313.15 K, 15330 kPa, Vibrating wire viscometry | 3.354 mPa·s and 3.356 mPa·s and 3.358 mPa·s
313.15 K, 18290 kPa, Vibrating wire viscometry | 3.441 mPa·s and 3.443 mPa·s
313.16 K, 1200 kPa, Vibrating wire viscometry | 2.882 mPa·s
313.16 K, 1210 kPa, Vibrating wire viscometry | 2.879 mPa·s
313.16 K, 1220 kPa, Vibrating wire viscometry | 2.882 mPa·s
313.16 K, 2700 kPa, Vibrating wire viscometry | 2.933 mPa·s
313.16 K, 5180 kPa, Vibrating wire viscometry | 3.01 mPa·s
313.16 K, 5190 kPa, Vibrating wire viscometry | 3.016 mPa·s
313.16 K, 10460 kPa, Vibrating wire viscometry | 3.178 mPa·s
313.16 K, 10480 kPa, Vibrating wire viscometry | 3.176 mPa·s
313.16 K, 10490 kPa, Vibrating wire viscometry | 3.177 mPa·s
313.16 K, 18290 kPa, Vibrating wire viscometry | 3.445 mPa·s
313.18 K, 101.33 kPa, Capillary tube (Ostwald / Ubbelohde) method | 2.888 mPa·s
323.1 K, 101.33 kPa, Capillary tube (Ostwald / Ubbelohde) method | 2.352 mPa·s
323.15 K, 1160 kPa, Vibrating wire viscometry | 2.359 mPa·s
323.15 K, 1170 kPa, Vibrating wire viscometry | 2.356 mPa·s
323.15 K, 1180 kPa, Vibrating wire viscometry | 2.36 mPa·s
323.15 K, 15180 kPa, Vibrating wire viscometry | 2.729 mPa·s
323.16 K, 2710 kPa, Vibrating wire viscometry | 2.409 mPa·s and 2.408 mPa·s
323.16 K, 2720 kPa, Vibrating wire viscometry | 2.412 mPa·s
323.16 K, 5260 kPa, Vibrating wire viscometry | 2.464 mPa·s
323.16 K, 5270 kPa, Vibrating wire viscometry | 2.462 mPa·s
323.16 K, 15200 kPa, Vibrating wire viscometry | 2.731 mPa·s
323.17 K, 10210 kPa, Vibrating wire viscometry | 2.598 mPa·s
323.17 K, 10220 kPa, Vibrating wire viscometry | 2.597 mPa·s
323.17 K, 18240 kPa, Vibrating wire viscometry | 2.814 mPa·s
323.17 K, 18260 kPa, Vibrating wire viscometry | 2.816 mPa·s
323.17 K, 18270 kPa, Vibrating wire viscometry | 2.812 mPa·s
333.14 K, 2610 kPa, Vibrating wire viscometry | 2.006 mPa·s
333.14 K, 2620 kPa, Vibrating wire viscometry | 2.009 mPa·s
333.15 K, 2620 kPa, Vibrating wire viscometry | 2.009 mPa·s
333.15 K, 5110 kPa, Vibrating wire viscometry | 2.05 mPa·s and 2.052 mPa·s
333.15 K, 5130 kPa, Vibrating wire viscometry | 2.052 mPa·s
333.15 K, 15200 kPa, Vibrating wire viscometry | 2.274 mPa·s
333.15 K, 15220 kPa, Vibrating wire viscometry | 2.273 mPa·s
333.15 K, 18260 kPa, Vibrating wire viscometry | 2.339 mPa·s
333.15 K, 18290 kPa, Vibrating wire viscometry | 2.338 mPa·s
333.15 K, 18300 kPa, Vibrating wire viscometry | 2.343 mPa·s
333.16 K, 1090 kPa, Vibrating wire viscometry | 1.975 mPa·s
333.16 K, 1100 kPa, Vibrating wire viscometry | 1.979 mPa·s
333.16 K, 1120 kPa, Vibrating wire viscometry | 1.979 mPa·s
333.16 K, 10160 kPa, Vibrating wire viscometry | 2.167 mPa·s
333.16 K, 10180 kPa, Vibrating wire viscometry | 2.163 mPa·s
333.16 K, 10190 kPa, Vibrating wire viscometry | 2.165 mPa·s
333.16 K, 15220 kPa, Vibrating wire viscometry | 2.273 mPa·s
333.22 K, 101.33 kPa, Capillary tube (Ostwald / Ubbelohde) method | 1.97 mPa·s
